Assay results taken from ChEMBL document CHEMBL1151435, “Antileishmanial structure-activity relationships of synthetic phospholipids: in vitro and in vivo activities of selected derivatives” (Antimicrob Agents Chemother, 2007).

How the values were obtained:
Leishmania donovani [1] = assay: Antileishmanial activity against Leishmania donovani MHOM/ET/67/HU3 promastigotes by drug sensitivity assay; type: functional, organism-based
Leishmania donovani [2] = assay: Antileishmanial activity against intracellular Leishmania donovani MHOM/ET/67/HU3 amastigotes infected in peritoneal macrophages of Mesocricetus auratus by drug sensitivity assay; type: functional, organism-based
Leishmania donovani [3] = assay: Activity ratio of compound EC50 to miltefosine EC50 for intracellular Leishmania donovani MHOM/ET/67/HU3 amastigotes infected in peritoneal macrophages of Mesocricetus auratus; type: functional
[4] = Therapeutic index, ratio of EC50 for human THP1 cells to EC50 for intracellular Leishmania donovani MHOM/ET/67/HU3 amastigotes infected in peritoneal macrophages of Mesocricetus auratus; type: cell-based, THP-1; details: read-out: TI
[5] = Therapeutic index, ratio of EC50 for human KB cells to EC50 for intracellular Leishmania donovani MHOM/ET/67/HU3 amastigotes infected in peritoneal macrophages of Mesocricetus auratus; type: cell-based; details: read-out: TI
Leishmania donovani [6] = assay: Antileishmanial activity against Leishmania donovani MHOM/ET/67/HU3 amastigotes infected in po dosed BALB/c mouse model administered one week after infection for 5 consecutive days measured after 3 days of last dose by Giemsa staining; type: functional; details: for ED50: MHOM/ET/67/HU3, po
[7] = Solubility at phosphate-buffered saline of pH 7.4; type: physicochemical; details: buffer
Leishmania donovani [8] = assay: Antileishmanial activity against Leishmania donovani MHOM/ET/67/HU3 amastigotes infected in ip dosed BALB/c mouse model administered as suspension one week after infection for 5 consecutive days measured after 3 days of last dose by Giemsa staining; type: functional; details: MHOM/ET/67/HU3, ip
Leishmania donovani [9] = assay: Antileishmanial activity against Leishmania donovani MHOM/ET/67/L82 infected in po dosed BALB/c mouse model; type: functional; details: MHOM/ET/67/L82, po
Leishmania donovani [10] = assay: Antileishmanial activity against Leishmania donovani MHOM/ET/67/HU3 amastigotes infected in ip dosed BALB/c mouse model administered one week after infection for 5 consecutive days measured after 3 days of last dose by Giemsa staining; type: functional; details: MHOM/ET/67/HU3, ip

Row | Compound | EC50 (Leishmania donovani [1]) [nM] | EC50 (Leishmania donovani [2]) [nM] | Ratio EC50 (Leishmania donovani [3]) | further results
1 | CCCCCCCCCCCCCCCCCCOP(=O)([O-])OCC[N+](C)(C)C [OCTADECYLPHOSPHONOCHOLINE] | 2400 |  |  | 
2 | CCCCCCCCCCCCCCCCOP(=O)([O-])OCC[N+]12CCC(CC1)CC2.O |  | 550 | 0.16 | 
3 | CCCCCCCCCCCCCCCCCCOP(=O)([O-])OCCC1CC[N+](Cc2ccccc2)(Cc2ccccc2)CC1.O |  | 760 | 0.23 | 
4 | CCCCCCCCCCCCCCCCOP(=O)([O-])OCC[N+]1(C)CCCCC1 |  | 300 | 0.09 | selectivity ratio [4]: 95.7; selectivity ratio [5]: 23.4; Activity (Leishmania donovani [6]): Dose-dependent effect; ED50 (Leishmania donovani [6]): 25.5 mg/kg
5 | CCCCCCCCCCCCCCCCCCOCC(COP(=O)([O-])OC1CC2CCC(C1)[N+]2(C)C)OC (configuration not stated) | 1690 |  |  | 
6 | CCCCCCCCCCCCCCCCCCOP(=O)([O-])OCC[N+](C)(C)C1CCCCC1.O |  | 1190 | 0.22 | 
7 | CCCCCCCCCCCCCCCCCCOP(=O)([O-])OCC[N+](C)(C)CC | 2040 |  |  | 
8 | CCCCCCCCCCCCCCCCCC(C)OP(=O)([O-])OCC[N+](C)(C)C (configuration not stated) | 3350 |  |  | 
9 | CCCCCCCCCCCCCCCCOP(=O)([O-])OCC[N+]1(C)CCOCC1.O |  | 2460 | 0.46 | 
10 | CCCCCCCCCCCCCCCCCCOCC(COP(=O)([O-])OCC[N+]1(C)CCCCC1)OC (configuration not stated) | 1790 | 1680 | 0.32 | 
11 | CCCCCCCCCCCCCCCCOP(=O)([O-])OCC[N+](C)(C)C [MILTEFOSINE] | 5700 | 2040 |  | selectivity ratio [4]: 5.48; selectivity ratio [5]: 0.83; ED50 (Leishmania donovani [9]): 10 mg/kg; ED50 (Leishmania donovani [6]): 8.09 mg/kg; ED50 (Leishmania donovani [10]): 7.72 mg/kg
12 | CCCCCCCCCCCCCCCCCCOP(=O)([O-])OCC[N+](C)(C)C1CC1.O | 1520 | 2640 | 0.5 | 
13 | CCCCCCCCCCCCCCCCCCOCCOCCOP(=O)([O-])OCC[N+]1(C)CCCC1 | 3360 |  |  | 
14 | CCCCCCCCC(Br)C(Br)CCCCCCCCOP(=O)([O-])OCC[N+](C)(C)C (configuration not stated) | 1090 |  |  | 
15 | CCCCCCCCCCCCCCCCCCCOP(=O)([O-])OCC[N+]1(C)CCCCC1 | 1290 |  |  | 
16 | CCCCCCCCCCCCCCCCOP(=O)([O-])OCC[N+](C)(C)c1ccccc1.O |  | 580 | 0.11 | 
17 | CCCCCCCCCCCCCCCCCCOP(=O)([O-])OCC[N+]1(C)CCSCC1.O | 2370 | 1220 | 0.23 | 
18 | CCCCCCCCCCCCCCCCCCOP(=O)([O-])OCC[N+]1(C)CCOCC1 |  | 940 | 0.18 | 
19 | CCCCCCCCCCCCCCCCOCCCOP(=O)([O-])OCC[N+](C)(C)C | 1550 |  |  | 
20 | CCCCCCCCCCCCCCCCOCC(COP(=O)([O-])OCC[N+](C)(C)C)OC (configuration not stated) | 3580 |  |  | 
21 | CCCCCCCCCCCCCCCCCCOP(=O)([O-])OCCC1CC[N+](C)(Cc2ccccc2)CC1.O.O (configuration not stated) |  | 820 | 0.25 | 
22 | CCCCCCCCCCCCCCCCOCCOCCOCCOCCOCCOCCOCCOCCOCCOCCOP(=O)([O-])OC1CC[N+](C)(C)CC1 |  | 1320 | 0.4 | 
23 | CCCCCCCCCCCCCCCCCCSCC(COC)COP(=O)([O-])OCC[N+]1(C)CCCCC1.O (configuration not stated) | 3610 | 250 | 0.07 | 

The next lines start with results.

Row | EC50 (Leishmania donovani [1]) [nM] | EC50 (Leishmania donovani [2]) [nM] | Compound | Ratio EC50 (Leishmania donovani [3]) | further results
24 |  | 430 | CCCCCCCCCCCCCCCCCCOP(=O)([O-])OC1CCC[N+](C)(C)C1 (configuration not stated) | 0.13 | 
25 |  | 990 | CCCCCCCCCCCCCCCCOP(=O)([O-])OC1CC[N+](C)(CCc2ccccc2)CC1.O.O (configuration not stated) | 0.49 | 
26 | 3060 | 1370 | CCCCCCCCCCCCCCCCCCOP(=O)([O-])OCC[N+]1(C)CCC(O)CC1 (configuration not stated) | 0.41 | 
27 |  | 410 | CCCCCCCCCCCCCCCCOP(=O)([O-])OC1CC[N+](C)(Cc2ccccc2)CC1 (configuration not stated) | 0.12 | selectivity ratio [4]: > 220; selectivity ratio [5]: 179; solubility [7]: Soluble; ED50 (Leishmania donovani [8]): 33 mg/kg
28 | 3020 |  | CCCCCCCCCCCCCCCCCCOP(=O)([O-])OC1CC[N+](C)(C)CC1 [PERIFOSINE] | 0.63 | ED50 (Leishmania donovani [9]): 25.2 mg/kg
29 |  | 710 | CCCCCCCCCCCCCCCCCCOP(=O)([O-])OC1CC2CCC(C1)[N+]2(C)C (configuration not stated) | 0.13 | 
30 | 2710 |  | CCCCCCCCCCCCCCCCCCOP(=O)([O-])OC1CC[N+](C)(CC)CC1 (configuration not stated) |  | 
31 |  | 400 | CCCCCCCCCCCCCCCCCCOP(=O)([O-])OC1CC[N+](CC)(CC)CC1.O.O | 0.12 | selectivity ratio [4]: 11.7; selectivity ratio [5]: 6.89; ED50 (Leishmania donovani [6]): 35.3 mg/kg
32 |  | 400 | CCCCCCCCCCCCCCCCCCOP(=O)([O-])OC1CC[N+](C)(Cc2ccccc2)CC1.O (configuration not stated) | 0.12 | 
33 | 3060 |  | CCCCCCCCCCCCCCCCCCOP(=O)([O-])OC1CC[N+]2(CCCC2)CC1 |  | 
